Counter-ions that a name gives are not always drawn.
What follows are molecules tested against 5-HT1-like receptor (Canis lupus familiaris, UniProt P79250) (assay: 5-HT1-like receptor screen, dog saphenous vein contraction). Conditions: contraction of dog saphenous vein helicoids, 37° C., in presence of ketanserin, prazosin, atropine, mepyramine, cocaine and ascorbate; EC50 estimated from concentration-effect curve.
Experimental: 5-HT1 -like Receptor Screen
Helicoids of dog saphenous vein were set up at 37° C. in modified Krebs solution at a resting force of 10 mN. The solution also contained 1 μmol/l each of ketanserin prazosin, atropine and mepyramine, 6 μmol/l cocaine and 200 μmol/l ascorbate. Nearly […] contractions were measured with force transducers on a polygraph. The tissues were exposed twice to 5-hydroxytryptamine (5-HT) 2 μmol/l followed by washes. A cumulative concentration-effect curve was determined, followed by a curve to 5-HT in the presence of the highest used concentration of test compound. Contractions caused by the test compound were compared with those caused by 5-HT. The intrinsic activity of the test compound was calculated as the ratio of the maximum test compound-induced effect over the effect caused by 2 μmol/l 5-HT. The EC50 of the test compound was estimated from the corresponding effect curve. When appropriate equilibrium dissociation constants Kp were estimated by the method of Marano & Kaumann (1976, J. Pharmacol. Exp. Ther. 198, 518-525).

Sequence of 5-HT1-like receptor (Canis lupus familiaris, UniProt P79250) (P79250 whole entry): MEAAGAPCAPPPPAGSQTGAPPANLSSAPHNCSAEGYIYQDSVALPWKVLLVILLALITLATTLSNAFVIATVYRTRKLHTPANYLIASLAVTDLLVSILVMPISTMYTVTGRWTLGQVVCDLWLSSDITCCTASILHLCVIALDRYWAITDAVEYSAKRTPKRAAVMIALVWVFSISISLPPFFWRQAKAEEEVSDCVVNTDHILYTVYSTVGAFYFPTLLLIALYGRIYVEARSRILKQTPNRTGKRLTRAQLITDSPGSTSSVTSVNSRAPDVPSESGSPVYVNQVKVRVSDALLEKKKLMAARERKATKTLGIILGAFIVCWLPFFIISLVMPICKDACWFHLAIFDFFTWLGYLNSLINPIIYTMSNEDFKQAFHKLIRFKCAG

Compound | EC50 [µM]
CNC1CCc2[nH]c3ccc(C(N)=O)cc3c2C1 (stereo not shown) [Example 24, 3-Methylamino-6-carboxamido-1,2,3,4-tetrahydrocarbazole hydrochloride] | 0.1 to 15
CC(=O)Nc1ccc2[nH]c3c(c2c1)CC(N)CC3 (stereo not shown) [Example 21, 3-Amino-6-(acetamido)-1,2,3,4-tetrahydrocarbazole oxalate] | 0.1 to 15
CNS(=O)(=O)Cc1ccc2[nH]c3c(c2c1)CC(N)CC3 (stereo not shown) [Example 11, 3-Amino-6-(N-methylsulphonamidomethyl)-1,2,3,4-tetrahydrocarbazole oxalate] | 0.1 to 15
N#CCc1ccc2[nH]c3c(c2c1)CC(N)CC3 (stereo not shown) [Example 10, 3-Amino-6-cyanomethyl-1,2,3,4-tetrahydrocarbazole oxalate] | 0.1 to 15

These molecules were tested against T1, 5-HT1-like receptor (Oryctolagus cuniculus, UniProt P49144) (assay: 5-HT1-like receptor screen, rabbit isolated basilar artery contraction). Conditions: isometric tension of endothelium-denuded rabbit basilar artery rings, in presence of ascorbate, indomethacin, cocaine, ketanserin and prazosin.
T1 construct: from tissue; host or cells: rabbit basilar artery (endothelium-denuded ring segments)
Experimental: Experiments were performed in intracranial arteries from rabbit isolated basilar artery in a similar method to one described previously (Parsons and Whalley, 1989. Eur J Pharmacol 174, 189-196.).
In brief, rabbits were killed by overdose with anaesthetic (sodium pentobarbitone). The whole brain was quickly removed and immersed in ice cold modified Kreb's solution and the basilar artery removed with the aid of a dissecting microscope. The Krebs solution was of the following composition (mM) Na^+ (120); K^+ (5); Ca^2+ (2.25); Mg^2+ (0.5); Cl^- (98.5); SO4^2- (1); EDTA (0.04), equilibrated with 95% O2 /5% CO2. The endothelium was removed by a gentle rubbing of the lumen with a fine metal wire. Arteries were then cut into ring segments (ca 4-5 mm wide) and set up for recording of isometric tension in 50 ml tissue baths in modified Krebs solution with the additional supplement of (mM); […] (20); fumarate (10); pyruvate (5); L-glutamate (5) and glucose (10). The arteries were then placed under a resting force of 3-4 mN maintained at 37° C. and the solution bubbled with 95% O2 /5% CO2.
After tests for initial reactivity with 90 mM KCl depolarising solution and for lack of acetylcholine-induced relaxation of 5-HT ([…]) precontraction, cumulative concentration-effect curves ([…]) to 5-HT were constructed in the presence of ascorbate […], cocaine […], indomethacin […], ketanserin […] and prazosin […].
Following a 45-60 min wash period, cumulative concentration-effect curves to the test compounds or 5-HT (as a time match control) were constructed in the presence of ascorbate, indomethacin, cocaine, ketanserin and prazosin.

T1 sequence (P49144 whole entry): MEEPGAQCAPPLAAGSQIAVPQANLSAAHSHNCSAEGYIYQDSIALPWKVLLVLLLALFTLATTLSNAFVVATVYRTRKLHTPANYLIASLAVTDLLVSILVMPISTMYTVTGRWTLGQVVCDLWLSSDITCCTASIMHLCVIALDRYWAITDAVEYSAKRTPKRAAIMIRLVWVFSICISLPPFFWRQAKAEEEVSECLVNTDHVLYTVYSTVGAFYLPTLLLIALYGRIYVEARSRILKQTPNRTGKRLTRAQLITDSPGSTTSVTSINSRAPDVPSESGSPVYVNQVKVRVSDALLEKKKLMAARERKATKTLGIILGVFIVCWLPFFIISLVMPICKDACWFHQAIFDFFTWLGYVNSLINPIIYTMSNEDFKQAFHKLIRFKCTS

Compound | EC50 [µM]
NC(=O)c1ccc2[nH]c3c(c2c1)CC(NCc1ccccc1)CC3 (stereo not shown) [Example 29, 3-Benzylamino-6-carboxamido-1,2,3,4-tetrahydrocarbazole oxalate] | 0.04 to 15
CNC1CCc2[nH]c3ccc(C(N)=O)cc3c2C1 (stereo not shown) [Example 24, 3-Methylamino-6-carboxamido-1,2,3,4-tetrahydrocarbazole hydrochloride] | 0.04 to 15
NC1CCc2[nH]c3ccc(S(N)(=O)=O)cc3c2C1 (stereo not shown) [Example 15, 3-Amino-6-sulphonamido-1,2,3,4-tetrahydrocarbazole oxalate] | 0.04 to 15

— patent publication US5827871A, “Medicaments 1,2,3,4-tetrahydrocarbazoles and 5-HT1 agonist use thereof” (priority 1991, dated 1998)
